Earlier results in US20200181654A1, “AGLYCONE PRODUCTION PROMOTER” (priority 2016, published 2020).

Settings: after oral ingestion

Row | SMILES | maximum values of the plasma concentrations of the aglycones, relative to ingestion of the glycosides (daidzin, genistin)
1 | O=c1c(-c2ccc(O)cc2)coc2cc(O)cc(O)c12 [genistein] | five times or greater
2 | O=c1c(-c2ccc(O)cc2)coc2cc(O)ccc12 [daidzein] | five times or greater
